Experimental data reported in PubChem BioAssay AID248 (DTP/NCI, 2004).
“And” between values parts separate entries of the source, which are not always exact repeats. Equal values may be shown once. Inconclusive results and toxic doses are left out.

Test system: L1210 leukemia ip in BDF1 mice, survival T/C
Experiment: NCI In Vivo Anticancer Drug Screen. Data for tumor model L1210 Leukemia (intraperitoneal) in B6D2F1 (BDF1) mice
Conditions: endpoint: mean survival time, higher = longer survival
Outline: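 In this screen, tumor-bearing mice given compound are compared to those given vehicle, and their survival values are reported as a treated-to-control quotient.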

For `O=C(Nc1ccc(NC2=NCCN2)cc1)c1ccc(C(=O)Nc2ccc(NC3=NCCN3)cc2)cc1`, the T/C (dose: 0.25 mg/kg/injection, schedule: Q01DX001 (ip), vehicle: saline) was 109 % of control, the T/C (dose: 0.3 mg/kg/injection, schedule: Q#A X Z (ip), vehicle: saline) was 116 % of control and the T/C (dose: 0.45 mg/kg/injection, schedule: Q#A X Z (ip), vehicle: saline) was 122 % of control. The T/C (dose: 0.5 mg/kg/injection, schedule: Q01DX001 (ip), vehicle: saline) was 110 % of control, the T/C (dose: 0.5 mg/kg/injection, schedule: Q07DX Z (ip), vehicle: saline) was 97 % of control and the T/C (dose: 0.63 mg/kg/injection, schedule: Q02DX004 (im), vehicle: saline) was 104 % of control. For the same molecule, the T/C (dose: 0.9 mg/kg/injection, schedule: Q01DX Z (ip), vehicle: methylcellulose (MC)) was 104 % of control, the T/C (dose: 0.94 mg/kg/injection, schedule: Q01DX Z (ip), vehicle: saline) was 103 % of control and the T/C (dose: 1.0 mg/kg/injection, schedule: Q01DX001 (ip), vehicle: saline) was 109 % of control. The T/C (dose: 1.0 mg/kg/injection, schedule: Q07DX Z (ip), vehicle: saline) was 106 % of control, the T/C (dose: 1.0 mg/kg/injection, schedule: Q#A X Z (ip), vehicle: saline) was 180 % of control and the T/C (dose: 1.25 mg/kg/injection, schedule: Q01DX Z (ip), vehicle: methylcellulose (MC)) was 109 % of control. The T/C (dose: 1.25 mg/kg/injection, schedule: Q02DX004 (im), vehicle: saline) was 101 % of control, the T/C (dose: 1.3 mg/kg/injection, schedule: Q01DX Z (ip), vehicle: saline) was 120 % of control and the T/C (dose: 1.3 mg/kg/injection, schedule: Q01DX Z (sc), vehicle: saline) was 93 % of control. The T/C (dose: 1.5 mg/kg/injection, schedule: Q#A X Z (ip), vehicle: saline) was 191 % of control, the T/C (dose: 1.8 mg/kg/injection, schedule: Q01DX Z (ip), vehicle: methylcellulose (MC)) was 116 % of control and the T/C (dose: 1.88 mg/kg/injection, schedule: Q01DX Z (ip), vehicle: saline) was 200 % of control. The T/C (dose: 2.0 mg/kg/injection, schedule: Q01DX001 (ip), vehicle: saline) was 113 % of control, the T/C (dose: 2.0 mg/kg/injection, schedule: Q01DX Z (ip), vehicle: saline) was 177 % of control and the T/C (dose: 2.0 mg/kg/injection, schedule: Q01DX Z (sc), vehicle: saline) was 101 % of control. The T/C (dose: 2.0 mg/kg/injection, schedule: Q07DX Z (ip), vehicle: saline) was 103 % of control, the T/C (dose: 2.5 mg/kg/injection, schedule: Q01DX Z (ip), vehicle: methylcellulose (MC)) was 150 % of control and the T/C (dose: 2.5 mg/kg/injection, schedule: Q02DX004 (im), vehicle: saline) was 108 % of control. The T/C (dose: 3.0 mg/kg/injection, schedule: Q01DX Z (ip), vehicle: saline) was 239 % of control, the T/C (dose: 3.0 mg/kg/injection, schedule: Q01DX Z (sc), vehicle: saline) was 113 % of control and the T/C (dose: 3.75 mg/kg/injection, schedule: Q01DX Z (ip), vehicle: saline) was 264 % of control. For the same molecule, the T/C (dose: 4.0 mg/kg/injection, schedule: Q01DX001 (ip), vehicle: saline) was 121 % of control, the T/C (dose: 4.0 mg/kg/injection, schedule: Q03DX Z (ip), vehicle: saline) was 121 % of control and the T/C (dose: 5.0 mg/kg/injection, schedule: Q01DX Z (ip), vehicle: methylcellulose (MC)) was 293 % of control. For the same molecule, the T/C (dose: 5.0 mg/kg/injection, schedule: Q02DX004 (im), vehicle: saline) was 106 % of control, the T/C (dose: 6.0 mg/kg/injection, schedule: Q03DX Z (ip), vehicle: saline) was 161 % of control and the T/C (dose: 6.0 mg/kg/injection, schedule: Q07DX Z (ip), vehicle: saline) was 198 % of control. For the same molecule, the T/C (dose: 7.5 mg/kg/injection, schedule: Q01DX Z (ip), vehicle: methylcellulose (MC)) was 268 % of control, the T/C (dose: 7.5 mg/kg/injection, schedule: Q01DX Z (ip), vehicle: saline) was 265 % of control and the T/C (dose: 8.0 mg/kg/injection, schedule: Q#A X Z (ip), vehicle: saline) was 110 % of control. For the same molecule, the T/C (dose: 9.0 mg/kg/injection, schedule: Q07DX Z (ip), vehicle: saline) was 154 % of control and 193 % of control, the T/C (dose: 10.0 mg/kg/injection, schedule: Q01DX001 (im), vehicle: steriod suspending solution) was 103 % of control and the T/C (dose: 10.0 mg/kg/injection, schedule: Q01DX010 (sc), vehicle: olive oil, sesame oil, peanut oil) was 101 % of control and 118 % of control. The T/C (dose: 10.0 mg/kg/injection, schedule: Q01DX Z (ip), vehicle: methylcellulose (MC)) was 200 % of control, the T/C (dose: 10.0 mg/kg/injection, schedule: Q02DX004 (im), vehicle: olive oil, sesame oil, peanut oil) was 153 % of control and the T/C (dose: 12.0 mg/kg/injection, schedule: Q#A X Z (ip), vehicle: saline) was 112 % of control. The T/C (dose: 14.0 mg/kg/injection, schedule: Q07DX Z (ip), vehicle: saline) was 152 % of control, the T/C (dose: 15.0 mg/kg/injection, schedule: Q01DX Z (ip), vehicle: methylcellulose (MC)) was 184 % of control and the T/C (dose: 15.0 mg/kg/injection, schedule: Q01DX Z (ip), vehicle: saline) was 161 % of control. For the same molecule, the T/C (dose: 16.0 mg/kg/injection, schedule: Q01DX001 (ip), vehicle: saline) was 155 % of control, the T/C (dose: 16.0 mg/kg/injection, schedule: Q01DX Z (sc), vehicle: saline) was 152 % of control and the T/C (dose: 18.0 mg/kg/injection, schedule: Q01DX001 (ip), vehicle: other) was 172 % of control. The T/C (dose: 18.0 mg/kg/injection, schedule: Q#A X Z (ip), vehicle: saline) was 109 % of control, the T/C (dose: 20.0 mg/kg/injection, schedule: Q01DX010 (sc), vehicle: olive oil, sesame oil, peanut oil) was 87 % of control and the T/C (dose: 20.0 mg/kg/injection, schedule: Q02DX004 (im), vehicle: olive oil, sesame oil, peanut oil) was 175 % of control and 196 % of control. For the same molecule, the T/C (dose: 21.0 mg/kg/injection, schedule: Q07DX Z (ip), vehicle: saline) was 184 % of control, the T/C (dose: 24.0 mg/kg/injection, schedule: Q01DX007 (iv), vehicle: saline) was 174 % of control and the T/C (dose: 24.0 mg/kg/injection, schedule: Q01DX Z (ip), vehicle: saline) was 120 % of control. The T/C (dose: 24.0 mg/kg/injection, schedule: Q01DX Z (sc), vehicle: saline) was 113 % of control, the T/C (dose: 26.0 mg/kg/injection, schedule: Q01DX001 (ip), vehicle: carboxymethylcellulose (CMC)) was 210 % of control and the T/C (dose: 26.0 mg/kg/injection, schedule: Q01DX001 (ip), vehicle: other) was 154 % of control and 200 % of control. The T/C (dose: 30.0 mg/kg/injection, schedule: Q01DX Z (ip), vehicle: saline) was 114 % of control, the T/C (dose: 36.0 mg/kg/injection, schedule: Q01DX007 (iv), vehicle: saline) was 210 % of control and the T/C (dose: 36.0 mg/kg/injection, schedule: Q01DX Z (ip), vehicle: saline) was 96 % of control. The T/C (dose: 40.0 mg/kg/injection, schedule: Q01DX001 (im), vehicle: steriod suspending solution) was 176 % of control, the T/C (dose: 40.0 mg/kg/injection, schedule: Q01DX001 (ip), vehicle: carboxymethylcellulose (CMC)) was 194 % of control and 206 % of control and the T/C (dose: 40.0 mg/kg/injection, schedule: Q01DX001 (ip), vehicle: other) was 198 % of control and 201 % of control. The T/C (dose: 40.0 mg/kg/injection, schedule: Q02DX004 (im), vehicle: olive oil, sesame oil, peanut oil) was 109 % of control and 110 % of control, the T/C (dose: 54.0 mg/kg/injection, schedule: Q01DX007 (iv), vehicle: saline) was 233 % of control and the T/C (dose: 60.0 mg/kg/injection, schedule: Q01DX001 (ip), vehicle: carboxymethylcellulose (CMC)) was 251 % of control and 296 % of control. For the same molecule, the T/C (dose: 60.0 mg/kg/injection, schedule: Q01DX001 (ip), vehicle: other) was 224 % of control and 297 % of control, the T/C (dose: 60.0 mg/kg/injection, schedule: Q01DX Z (ip), vehicle: saline) was 103 % of control and the T/C (dose: 64.0 mg/kg/injection, schedule: Q01DX010 (oral), vehicle: saline) was 108 % of control. For the same molecule, the T/C (dose: 72.0 mg/kg/injection, schedule: Q01DX001 (ip), vehicle: saline) was 215 % of control and 232 % of control and 264 % of control, the T/C (dose: 75.0 mg/kg/injection, schedule: Q01DX Z (oral), vehicle: saline) was 95 % of control and the T/C (dose: 80.0 mg/kg/injection, schedule: Q01DX001 (im), vehicle: saline) was 213 % of control. For the same molecule, the T/C (dose: 80.0 mg/kg/injection, schedule: Q01DX001 (im), vehicle: steriod suspending solution) was 211 % of control, the T/C (dose: 80.0 mg/kg/injection, schedule: Q02DX004 (im), vehicle: olive oil, sesame oil, peanut oil) was 87 % of control and the T/C (dose: 81.0 mg/kg/injection, schedule: Q01DX007 (iv), vehicle: saline) was 97 % of control. The T/C (dose: 81.0 mg/kg/injection, schedule: Q01DX Z (ip), vehicle: saline) was 122 % of control, the T/C (dose: 90.0 mg/kg/injection, schedule: Q01DX001 (ip), vehicle: carboxymethylcellulose (CMC)) was 244 % of control and the T/C (dose: 90.0 mg/kg/injection, schedule: Q01DX001 (ip), vehicle: other) was 265 % of control. For the same molecule, the T/C (dose: 96.0 mg/kg/injection, schedule: Q01DX010 (oral), vehicle: saline) was 111 % of control, the T/C (dose: 144.0 mg/kg/injection, schedule: Q01DX010 (oral), vehicle: saline) was 97 % of control and 119 % of control and the T/C (dose: 150.0 mg/kg/injection, schedule: Q01DX Z (oral), vehicle: saline) was 101 % of control. For the same molecule, the T/C (dose: 160.0 mg/kg/injection, schedule: Q01DX001 (im), vehicle: saline) was 243 % of control, the T/C (dose: 320.0 mg/kg/injection, schedule: Q01DX001 (im), vehicle: saline) was 271 % of control and the T/C (dose: 576.0 mg/kg/injection, schedule: Q01DX001 (ip), vehicle: saline) was 110 % of control. For the same molecule, the T/C (dose: 576.0 mg/kg/injection, schedule: Q01DX010 (oral), vehicle: saline) was 116 % of control and the T/C (dose: 600.0 mg/kg/injection, schedule: Q01DX Z (oral), vehicle: saline) was 122 % of control.
